Patent US11000033B2, “Ketone or oxime compound, and herbicide” (NISSAN CHEMICAL CORPORATION, priority 2014, dated 2021)

Key:
Format in all cases: in vivo
[1] = system: Monochoria vaginalis; experiment: Test Example 1: herbicidal activity, application before weed generation in submerged conditions (symbol C); conditions: application herbicide amount 320 g/ha
Outline: (§1)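 Compound emulsion was diluted to a set herbicide amount and applied to the water surface on the sowing day, into submerged (4 cm) alluvial-soil pots sown with mixed weed seeds and transplanted 2.5-leaf rice. Pots were held in a 25–30 °C greenhouse, and weeds were scored 0–5 by herbicidal ratio after 3 weeks.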

[2] = system: soybean; experiment: Test Example 4: effect on crop by soil treatment (symbol d); conditions: application herbicide amount 320 g/ha
Outline: (§2)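 Seeds were sown in spots on sterilized diluvial soil in a plastic box and covered with about 1.5 cm of soil. Plants were then grown in a greenhouse at 25° C. to 30° C.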

[3] = system: directly sowed rice plant; experiment: Test Example 3: effect on crop by foliage application, Wagner pot (symbol b); conditions: application herbicide amount 320 g/ha
Outline: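 Alluvial soil in a 1/10000-are Wagner pot was flooded to a water depth of 0.1–0.5 cm. Echinochloa crus-galli var. crus-galli, Leptochloa chinensis, Cyperus difformis and rice were sown into it and grown in a greenhouse at 25–30 °C.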

[4] = system: corn; experiment: Test Example 5: effect on crop by foliage application, plastic box (symbol c); conditions: 320 g/ha, 3 weeks after application
Outline: (§3)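 Crop and weed seeds sown in spots in sterilized diluvial soil in plastic boxes and covered with about 1.5 cm soil. Plants raised in a greenhouse at 25° C. to 30° C. for foliar application.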

[5] = system: Digitaria ciliaris; experiment: Test Example 5: herbicidal effect by foliage application, plastic box (symbol F); conditions: 320 g/ha, 3 weeks after application
Outline: (§4)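 Seeds were sown in sterilized diluvial soil, covered with about 1.5 cm of soil and grown 14 days in a greenhouse at 25° C. to 30° C. An emulsifiable formulation diluted in water to a set rate was sprayed over foliage, and injury was scored 3 weeks later.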

[6] = system: transplanted rice plant; experiment: Test Example 1: effect on crop, application before weed generation in submerged conditions (symbol a); conditions: application herbicide amount 320 g/ha
Outline: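 Alluvial soil pots flooded to 4 cm water, sown with Echinochloa oryzacola, Scirpus juncoides and Monochoria vaginalis, then transplanted with 2.5 leaf stage rice seedlings; pre-emergence application. Greenhouse 25° C. to 30° C.; scored 0–5 by herbicidal ratio 3 weeks after application.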

[7] = system: Echinochloa crus-galli var. crus-galli; experiment: Test Example 5: herbicidal effect by foliage application, plastic box (symbol H); conditions: 320 g/ha, 3 weeks after application
Outline: as §4

[8] = system: Alopecurus myosuroides; experiment: Test Example 5: herbicidal effect by foliage application, plastic box (symbol J); conditions: 320 g/ha, 3 weeks after application
Outline: as §4

[9] = system: Amaranthus retroflexus; experiment: Test Example 5: herbicidal effect by foliage application, plastic box (symbol N); conditions: 320 g/ha, 3 weeks after application
Outline: as §4

[10] = system: Lolium multiflorum Lam.; experiment: Test Example 4: herbicidal effect by soil treatment (symbol K); conditions: application herbicide amount 320 g/ha
Outline: (§5)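 Seeds were sown in sterilized diluvial soil, covered with about 1.5 cm of soil, and the soil surface was sprayed with a water-diluted emulsion of the compound at a predetermined rate. Plants grew in a greenhouse at 25° C. to 30° C.; effects were scored visually 3 weeks after application.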

[11] = system: Echinochloa oryzacola Vasing.; experiment: Test Example 1: herbicidal activity, application before weed generation in submerged conditions (symbol A); conditions: application herbicide amount 320 g/ha
Outline: as §1

[12] = system: rice; experiment: Test Example 4: effect on crop by soil treatment (symbol b); conditions: application herbicide amount 320 g/ha
Outline: as §2

[13] = system: Lolium multiflorum Lam.; experiment: Test Example 5: herbicidal effect by foliage application, plastic box (symbol K); conditions: 320 g/ha, 3 weeks after application
Outline: as §4

[14] = system: Chenopodium album; experiment: Test Example 4: herbicidal effect by soil treatment (symbol O); conditions: application herbicide amount 320 g/ha
Outline: as §5

[15] = system: Abutilon theophrasti; experiment: Test Example 5: herbicidal effect by foliage application, plastic box (symbol M); conditions: 320 g/ha, 3 weeks after application
Outline: as §4

[16] = system: rice plant; experiment: Test Example 5: effect on crop by foliage application, plastic box (symbol b); conditions: 320 g/ha, 3 weeks after application
Outline: as §3

Row | Compound | Herbicidal effect grade, C: Monochoria vaginalis [1] | effect on crop b (directly sowed rice plant), grade 0-5 [3] | c: corn, effect on crop grade [4] | F: Digitaria ciliaris, herbicidal effect grade [5] | Effect grade on crop, a: transplanted rice plant [6] | H: Echinochloa crus-galli var. crus-galli, herbicidal effect grade [7] | J: Alopecurus myosuroides, herbicidal effect grade [8] | Herbicidal effect grade, A: Echinochloa oryzacola Vasing. [11] | d: soybean, effect on crop grade [2] | K: Lolium multiflorum Lam., herbicidal effect grade [10] | b: directly sowed rice plant, effect on crop grade [12] | O: Chenopodium album, herbicidal effect grade [14] | c: corn, effect on crop (criteria of Test Example 1) [4] | F: Digitaria ciliaris, herbicidal effect (criteria of Test Example 1) [5] | H: Echinochloa crus-galli var. crus-galli, herbicidal effect (criteria of Test Example 1) [7] | J: Alopecurus myosuroides, herbicidal effect (criteria of Test Example 1) [8] | N: Amaranthus retroflexus, herbicidal effect (criteria of Test Example 1) [9] | K: Lolium multiflorum Lam., herbicidal effect (criteria of Test Example 1) [13] | M: Abutilon theophrasti, herbicidal effect (criteria of Test Example 1) [15] | b: directly sowed rice plant, effect on crop (criteria of Test Example 1) [16] | also measured
1 | COC(=O)CON=C(C)CC1CC(O)=C(c2c(C)cc(C)cc2C)C1=O (centres unmarked) [1-023] | 0 (Herbicidal ratio of 5% or lower (almost no effect)) | 4 (Herbicidal ratio of 70% or higher and lower than 90%) | 1 (Herbicidal ratio of 5% or higher and lower than 20%) | 2 (Herbicidal ratio of 20% or higher and lower than 40%) | 1 (Herbicidal ratio of 5% or higher and lower than 20%) | 4 (Herbicidal ratio of 70% or higher and lower than 90%) | 4 (Herbicidal ratio of 70% or higher and lower than 90%) | 4 (Herbicidal ratio of 70% or higher and lower than 90%) | – | – | – | – | – | – | – | – | – | – | – | – | d (soybean) effect on crop grade [2]: 0 (Herbicidal ratio of 5% or lower (almost no effect)); N: Amaranthus retroflexus, herbicidal effect grade [9]: 0 (Herbicidal ratio of 5% or lower (almost no effect)); K (Lolium multiflorum Lam.) herbicidal effect grade [10]: 3 (Herbicidal ratio of 40% or higher and lower than 70%); b (directly sowed rice plant) effect on crop grade [12]: 5 (Herbicidal ratio of 90% or more (almost completely withered)); K: Lolium multiflorum Lam., herbicidal effect grade [13]: 4 (Herbicidal ratio of 70% or higher and lower than 90%); O (Chenopodium album) herbicidal effect grade [14]: 0 (Herbicidal ratio of 5% or lower (almost no effect)); M: Abutilon theophrasti, herbicidal effect grade [15]: 0 (Herbicidal ratio of 5% or lower (almost no effect)); b: directly sowed rice plant, effect on crop grade [16]: 4 (Herbicidal ratio of 70% or higher and lower than 90%)
2 | CON=C(C)CC1CC(O)=C(c2c(C)cc(Oc3ccccc3)cc2C)C1=O (centres unmarked) [6-052] | 0 (Herbicidal ratio of 5% or lower (almost no effect)) | 5 (Herbicidal ratio of 90% or more (almost completely withered)) | 3 (Herbicidal ratio of 40% or higher and lower than 70%) | 5 (Herbicidal ratio of 90% or more (almost completely withered)) | 3 (Herbicidal ratio of 40% or higher and lower than 70%) | 5 (Herbicidal ratio of 90% or more (almost completely withered)) | 4 (Herbicidal ratio of 70% or higher and lower than 90%) | 4 (Herbicidal ratio of 70% or higher and lower than 90%) | 0 (Herbicidal ratio of 5% or lower (almost no effect)) | 0 (Herbicidal ratio of 5% or lower (almost no effect)) | 1 (Herbicidal ratio of 5% or higher and lower than 20%) | 0 (Herbicidal ratio of 5% or lower (almost no effect)) | – | – | – | – | – | – | – | – | N: Amaranthus retroflexus, herbicidal effect grade [9]: 0 (Herbicidal ratio of 5% or lower (almost no effect)); K: Lolium multiflorum Lam., herbicidal effect grade [13]: 5 (Herbicidal ratio of 90% or more (almost completely withered)); M: Abutilon theophrasti, herbicidal effect grade [15]: 0 (Herbicidal ratio of 5% or lower (almost no effect)); b: directly sowed rice plant, effect on crop grade [16]: 5 (Herbicidal ratio of 90% or more (almost completely withered))
3 | CON=C(C)CC1CC(O)=C(c2c(C)cc(OC)cc2C)C1=O (centres unmarked) [6-055] | 0 (Herbicidal ratio of 5% or lower (almost no effect)) | 5 (Herbicidal ratio of 90% or more (almost completely withered)) | – | – | 5 (Herbicidal ratio of 90% or more (almost completely withered)) | – | – | 4 (Herbicidal ratio of 70% or higher and lower than 90%) | 0 (Herbicidal ratio of 5% or lower (almost no effect)) | 5 (Herbicidal ratio of 90% or more (almost completely withered)) | 5 (Herbicidal ratio of 90% or more (almost completely withered)) | 0 (Herbicidal ratio of 5% or lower (almost no effect)) | 5 (Herbicidal ratio of 90% or more (almost completely withered)) | 5 (Herbicidal ratio of 90% or more (almost completely withered)) | 5 (Herbicidal ratio of 90% or more (almost completely withered)) | 5 (Herbicidal ratio of 90% or more (almost completely withered)) | 0 (Herbicidal ratio of 5% or lower (almost no effect)) | 5 (Herbicidal ratio of 90% or more (almost completely withered)) | 1 (Herbicidal ratio of 5% or higher and lower than 20%) | 5 (Herbicidal ratio of 90% or more (almost completely withered)) | –
4 | CON=C(C)CC1CC(O)=C(c2c(C)cc(C(C)=NOC)cc2C)C1=O (centres unmarked) [6-065] | 3 (Herbicidal ratio of 40% or higher and lower than 70%) | 5 (Herbicidal ratio of 90% or more (almost completely withered)) | – | – | 4 (Herbicidal ratio of 70% or higher and lower than 90%) | – | – | 4 (Herbicidal ratio of 70% or higher and lower than 90%) | 0 (Herbicidal ratio of 5% or lower (almost no effect)) | 5 (Herbicidal ratio of 90% or more (almost completely withered)) | 5 (Herbicidal ratio of 90% or more (almost completely withered)) | 3 (Herbicidal ratio of 40% or higher and lower than 70%) | 5 (Herbicidal ratio of 90% or more (almost completely withered)) | 5 (Herbicidal ratio of 90% or more (almost completely withered)) | 5 (Herbicidal ratio of 90% or more (almost completely withered)) | 5 (Herbicidal ratio of 90% or more (almost completely withered)) | 0 (Herbicidal ratio of 5% or lower (almost no effect)) | 5 (Herbicidal ratio of 90% or more (almost completely withered)) | 2 (Herbicidal ratio of 20% or higher and lower than 40%) | 5 (Herbicidal ratio of 90% or more (almost completely withered)) | –
5 | CCc1cc(-c2ccc(Cl)cc2)cc(C)c1C1=C(O)CC(CC(C)=NOC)C1=O (centres unmarked) [6-066] | 2 (Herbicidal ratio of 20% or higher and lower than 40%) | 5 (Herbicidal ratio of 90% or more (almost completely withered)) | – | – | 3 (Herbicidal ratio of 40% or higher and lower than 70%) | – | – | 5 (Herbicidal ratio of 90% or more (almost completely withered)) | 0 (Herbicidal ratio of 5% or lower (almost no effect)) | 5 (Herbicidal ratio of 90% or more (almost completely withered)) | 5 (Herbicidal ratio of 90% or more (almost completely withered)) | 0 (Herbicidal ratio of 5% or lower (almost no effect)) | 5 (Herbicidal ratio of 90% or more (almost completely withered)) | 5 (Herbicidal ratio of 90% or more (almost completely withered)) | 5 (Herbicidal ratio of 90% or more (almost completely withered)) | 5 (Herbicidal ratio of 90% or more (almost completely withered)) | 3 (Herbicidal ratio of 40% or higher and lower than 70%) | 5 (Herbicidal ratio of 90% or more (almost completely withered)) | 3 (Herbicidal ratio of 40% or higher and lower than 70%) | 5 (Herbicidal ratio of 90% or more (almost completely withered)) | –
